Experimental findings from patent US20070003480A1, “Liposomal composition comprising haptotactic peptides” (Hapto Biotech, Inc., priority 2002, published 2007) are described below.

“Also recorded” adds a separate entry of the source.

For one data set, the system named is Human fibroblasts. Nature of the data set: Haptide-mediated liposome uptake by human fibroblasts, fluorescence microscopy. It is filed as cell-based. Particulars: for liposome uptake into the cytoplasm of fibroblasts: rhodamine-loaded liposomes, FIG. 4. The procedure:
(§1) Human fibroblasts or bovine aortic endothelial cells were seeded and grown in CO2 incubator for 24 hours in a 4-chamber cell culture coverslip slide (source) used for microscopy. Then, they were exposed to either free ^FITCHaptide or to a ^FITCHaptotactic Peptide-Liposomal composition. Two liposome types were examined, namely liposomes composed of hydrogenated phosphatidyl serine, PEG and cholesterol, containing the fluorescent dye Rhodamine; and clinical grade liposomes containing the anti-cancer drug doxorubicin (Doxil liposomes). Both rhodamine and doxorubicin are fluorescent compounds. Thus, the liposome penetration and distribution within cells could be tracked by fluorescence microscopy or FACS. Typically, 20 μl of fluorescent Haptotactic Peptide-Liposomal composition were mixed with 180 μl PBS and added to the cell chamber. Incubation was continued for up to 1 hour at 37 or 4° C. The incubation was stopped at different time points by two subsequent washes with PBS, followed by fixation with 500 μl of 4% formaldehyde for 1 hr. The samples were then washed again with PBS. Coverslips with the fixed cells were covered by PBS-glycerol 80%, DABCO 2%, and an additional coverslip for microscopic examination.

Data set [1] in a line: Particle size by dynamic light scattering. It is filed as physicochemical. Particulars: Haptide solution 1 mg/mL, 0.45 μm filtered, 25° C., mean of three measurements. As for the experimental part:
It has been previously observed by gel filtration that haptides tend to form aggregates (Gorodetsky R, Vexler A, Shamir M, An J, Levdansky L, Shimeliovich I, Marx G. Exp Cell Res. 287:116-129 (2003). A solution of the Haptide preCγ (1 mg/mL) was passed through a 0.45 μm filter and then measured by dynamic light scattering at 25° C. The average particle size (a mean value of three measurements) was ˜145 nm (FIG. 3), showing that such particle is an aggregate of few hundreds of preCγ monomers.
Similarly, Doxil liposomes were measured and observed to have a mean diameter of 80 nm. However, when the preCγ-liposomal composition was formed, the preCγ Haptides aggregates disappeared in correlation with the liposome/Haptide weight ratio (FIG. 3). […] At a doxil/haptide weight ratio of >10^−2, the almost totally all the Haptides aggregates were solubilized within the liposomes as indicated by the disappearance of larger Haptide particles, forming the haptotactic-peptide liposomal composition.

The test system of data set [2] is bovine aortic endothelial cells. The data set is described as follows: Haptide-mediated Doxil liposome uptake by bovine aortic endothelial cells, fluorescence microscopy. Type of data set: cell-based. The settings on record: Doxil (doxorubicin-loaded) liposomes; FIG. 5. The procedure:
as §1

In another data set the test system is HF. The data set is described as follows: Cell adhesion (haptotaxis) assay, Sepharose bead-bound ligand. Type of data set: cell-based, human. The settings on record: ligand bound to Sepharose beads. As for the experimental part:
(§2) The attachment of Sepharose beads (SB)-ligand to cells in nearly confluent cultures grown on plastic was measured as previously described (Gorodetsky R. et al. 1998. J Lab Clin Med 131, 269-280; Gorodetsky R. et al. 1999. J Invest Dermatol 112:866-872). Essentially, about 20-150 μl of suspended (50% v/v) SB-Haptide or SB-fibrinogen were added to near confluent cell cultures in 6-24 well plates and dispersed by gentle shaking for 1 min. The plates were then incubated for up to 4 days. After one day the number of SB tethered to cell layer was counted with an inverted phase or Numarsky microscopy. Typically, ˜300 SB (but not less then 200) were counted in each well, and the ratio of the number of SB attached to the cells in each well, was calculated relative to the total number of SB. At least 3 wells were measured for each variant and each experiment was repeated at least 3 times.

The next data set concerns BAEC. Described as above. Type of data set: cell-based, bovine. The settings on record: ligand bound to Sepharose beads. The procedure: as §2
Another data set has as its system human fibroblasts (HF). Nature of the data set: Uptake of FITC-labelled peptides by cells, confocal laser fluorescence microscopy. The settings on record: visual score (0-4) from fluorescence micrographs; FITC-labelled ligand 100 μg/ml (40 μM), 1 h, 37° C. It is filed as cell-based. The procedure: Fluorescent microscopy was carried out with Olympus or Nikon fluorescence microscopes. Confocal laser microscopy was done with a computerized Zeiss Confocal Axiomate microscope (LSM410) with multiple excitation wavelengths. Peptides were tagged with fluorescein isothiocyanate (FITC) for visualization. For examination of ^FITCpeptides uptake by human fibroblasts (HF) the cells were grown on glass coverslips to near confluence and then incubated with 100 μg/ml (40 μM) ^FITCpeptides at 37° C. After 1 h, the cells were washed and fixed in 0.5% buffered glutaraldehyde. Coverslips with the cells were placed on a microscope slide with PBS-glycerol 80% with 2% DABCO and examined. The representative fields of cells were visualized by Numarski optics and confocal scans of cell fluorescence intensity in 1 μm slices were recorded at the FITC wavelength (excitation 488 nm, emission 515 nm) and later reconstructed. Uptake of ^FITCligand by HF was scored visually (0-4). The fluorescent haptotactic peptides were clearly seen taken up by the HF cells, and the nuclei remained relatively free of ^FITCHaptide (FIGS. 1A & B). […] By contrast, the uptake of the control ^FITCCα peptide by the cells was negligible.

Turning to “KTRWYSMKKTTMKIIPFNRL (Equivalent to the c-terminus of fibrinogen pre-gama chain) [preCγ]”, the “liposome uptake into the cytoplasm of fibroblasts” value (“liposome uptake into the cytoplasm” below) in the data set on Human fibroblasts is given as “facilitated liposome uptake”. Further, the average particle size in data set [1] is listed as ~145 nm. Also, the “liposome uptake into endothelial cells” value in data set [2] is “facilitated liposome uptake”.

Take fibrinogen: the “% Haptotaxis (HF, 1 day)” value with HF was 100%. In the data set with BAEC, the “% Haptotaxis (BAEC, 1 day)” value is recorded as 100%. For the same substance, the “Cell Uptake (HF)” value with human fibroblasts (HF) is on record as “+2”.

On to “RGADYSLRAVRMKIRPLTVTQ (Equivalent to the c-terminus of fibrinogen alphaE chain) [CαE]”, for which the “% Haptotaxis (HF, 1 day)” value in the data set on HF was 60%. Moreover, the “liposome uptake into the cytoplasm” value in the data set with Human fibroblasts is recorded as “Low induction”. Besides, the “% Haptotaxis (BAEC, 1 day)” value with BAEC was 75%. For the same substance, the “Cell Uptake (HF)” value with human fibroblasts (HF) was “+3”. Moreover, the “liposome uptake into endothelial cells” value in data set [2] was “efficient in enhancing doxorubicin-liposome (Doxil) uptake”.

As to “KGSWYSMRKMSMKIRPFFPQQ (Equivalent to the c-terminus of fibrinogen beta-chain) [Cβ]”, the “% Haptotaxis (HF, 1 day)” value with HF came out at 100%. For the same substance, in the data set with Human fibroblasts (Doxorubicin-loaded liposomes, varying Haptide concentration, FIG. 6), the “concentration-dependent liposome uptake by human fibroblasts” value is “increased liposome uptake; also recorded: directly correlated to the Haptide (Cβ) concentration”. In addition, the “liposome uptake into the cytoplasm” value with Human fibroblasts is reported as “facilitated liposome uptake”. Besides, in the data set with BAEC, the “% Haptotaxis (BAEC, 1 day)” value came out at 100%. Moreover, the “Cell Uptake (HF)” value in the data set with human fibroblasts (HF) is given as “+4”. The “liposome uptake into endothelial cells” value in data set [2] is recorded as “facilitated liposome uptake”.
